Laboratory results: patent publication US20100267712A1, “ISOINDOLINE COMPOUNDS FOR THE TREATMENT OF SPINAL MUSCULAR ATROPHY AND OTHER USES” (The United States of America, as represented by the …, priority 2007, published 2010)

System: SMN2-linked luciferase-reporter gene construct
Assay: SMN Splice Reporter Assay (SMN2-linked luciferase reporter)
Assay type: cell-based
Details: for EC50: cervical carcinoma cell lines, SMN2 splice luciferase reporter; for Fold Increase: fold-increase of luciferase over baseline reading of transformed cells without any test compound
Summary of the method: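 Cervical carcinoma cells carrying an SMN2-luciferase splicing reporter, in-frame only with exon 7 inclusion, were treated with compound. Luciferase activity reported as fold increase over untreated transformed cells, with EC50 derived.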

SMILES | EC50 | Fold Increase
COc1ccc(-c2ccc3c(c2)C(=O)N(c2ccc4c(ccn4C)c2)C3)cc1 [Example 122040] | – | 1.148
Cn1ccc2cc(N3Cc4ccc(F)cc4C3=O)ccc21 [Example 121925] | 193 nM | 1.347
COc1ccc2c(c1)C(=O)N(c1ccc3c(c1)c(C)cn3C)C2 [Example 122184] | 409 nM | 1.639
Cn1ccc2cc(N3Cc4c(Br)cccc4C3=O)ccc21 [Example 120289] | 1030 nM | 1.39
COc1ccc2c(c1)C(=O)N(c1ccc3nccc(Cl)c3c1)C2 [Example 123013] | 902 nM | 1.413
Cc1ccc(N2Cc3cc4c(cc3C2=O)OCCO4)nc1 [Example 118418] | 63 nM | 1.496
CCCOc1ccc2c(c1)C(=O)N(c1ccc3cc(C)n(C)c3c1)C2 [Example 124982] | – | 1.221
COc1cc2c(cc1OC)C(=O)N(c1ccc3ncccc3c1)C2 [Example 120954] | 2040 nM | 1.356
Cn1ccc2cc(N3Cc4c(N)cccc4C3=O)ccc21 [Example 120120] | – | 1.094
COc1ccc2c(c1)C(=O)N(c1ccc3c(N(C)C)ccnc3c1)C2 [Example 123713] | – | 1.072
COC(=O)C1CCc2cc(N3Cc4ccccc4C3=O)ccc21 (centres unmarked) [Example 113487] | 143 nM | 1.259
Cn1ccc2ccc(N3Cc4ccc(Br)cc4C3=O)cc21 [Example 120117] | 829 nM | 1.519
COc1ccc2c(c1)C(=O)N(c1ccc3c(ccn3C(F)F)c1)C2 [Example 121788] | – | 1.19
Cn1ccc2cc(N3Cc4cc(F)ccc4C3=O)ccc21 [Example 122316] | 65 nM | 1.401
CCCOc1ccc2c(c1)C(=O)N(c1ccc3sccc3c1)C2 [Example 122551] | – | 1.235
COCCn1ccc2ccc(N3Cc4ccc(OC)cc4C3=O)cc21 [Example 120284] | 7870 nM | 1.19
Cn1ccc2cc(N3Cc4cc(Br)ccc4C3=O)ccc21 [Example 120592] | 112 nM | 1.51
Cn1ccc2cc(N3Cc4ccc(OCC(F)(F)F)cc4C3=O)ccc21 [Example 122043] | 540 nM | 1.341
CN(C)c1ccc2c(c1)C(=O)N(c1ccc3c(c1)CCN3C)C2 [Example 119660] | – | 1.074

More lines, in order of falling EC50, values ahead:

EC50 | SMILES | Fold Increase
737 nM | Cn1ccc2ccc(N3Cc4cccc([N+](=O)[O-])c4C3=O)cc21 [Example 120282] | 1.291
556 nM | Cn1ccc2cc(N3Cc4ccc(S(C)(=O)=O)cc4C3=O)ccc21 [Example 121790] | 1.336
519 nM | COc1ccc2c(c1)C(=O)N(c1ccc3c(c1)OC(F)(F)O3)C2 [Example 116565] | 1.3
439 nM | CCCn1ccc2cc(N3Cc4ccc(OC)cc4C3=O)ccc21 [Example 119517] | 1.59
359 nM | Cc1cc2cc(N3Cc4ccc(CC(C)C)cc4C3=O)ccc2n1C [Example 123439] | 1.357
323 nM | CCCc1ccc2c(c1)C(=O)N(c1ccc3c(c1)cc(C)n3C)C2 [Example 123014] | 1.407
277 nM | CC(C)C(=O)Nc1ccc2c(c1)C(=O)N(c1ccc3c(ccn3C)c1)C2 [Example 124864] | 1.519
188 nM | COc1ccc2c(c1)C(=O)N(c1ccc3c(ccc[n+]3[O-])c1)C2 [Example 121786] | 1.498
139 nM | O=C1c2cc(O)ccc2CN1c1ccc2ccsc2c1 [Example 122556] | 1.671
131 nM | Cn1ccc2cc(N3Cc4cc(Cl)ccc4C3=O)ccc21 [Example 120778] | 1.492
36 nM | CC(C)Cc1ccc2c(c1)C(=O)N(c1ccc3c(ccn3C)c1)C2 [Example 121927] | 1.323
